In US10654853B2, “Spiro-condensed pyrrolidine derivatives as deubiquitylating enzymes (DUB) inhibitors” (MISSION THERAPEUTICS LIMITED, priority 2016, dated 2020):

target: Cezanne 1 (Homo sapiens (Human), UniProt Q6GQQ9); experiment: Cezanne 1 biochemical IC50 assay (fluorescence polarisation, TAMRA labelled peptide linked to ubiquitin); conditions: not given
Experimental: The Cezanne 1 construct was PCR amplified and cloned into a pFLAG-CMV-6c vector (Sigma-Aldrich) with an N-terminal FLAG tag. HEK293T cells were transfected with FLAG-Cezanne 1 using TransIT-LT1 transfection reagent (Mirus) according to the manufacturer's instructions. Cells were harvested 48 hours after transfection. […] The resin was washed two times with low salt buffer and one time with high salt buffer (20 mM Tris, pH 7.5, 500 mM NaCl, 0.5 mM EDTA, 5 mM beta-mercaptoethanol, protease inhibitors (complete mini, Roche) and phosphatase inhibitors (PhosSTOP mini, Roche). To elute the bound Cezanne 1, elution buffer (10 mM Tris, pH 7.5, 150 mM NaCl, 0.5 mM EDTA, 10% glycerol, 0.5% NP40, 5 mM beta-mercaptoethanol, 0.15 mg/ml 3× FLAG peptide (Sigma-Aldrich)) was added to the resin and incubated at 4° C. for 2.5 hours while rotating. The resin was centrifuged at 4000 rpm for 30 seconds, and the supernatant containing purified FLAG-Cezanne 1 was removed and stored at −80° C. […] Dilution plates were prepared at 21 times the final concentration (2100 μM for a final concentration of 100 μM) in 50% DMSO in a 96-well polypropylene V-bottom plate (Greiner #651201). […] Reactions were performed in duplicate in black 384 well plates (small volume, Greiner 784076) in a final reaction volume of 21 μl. Either 1 μl of 50% DMSO or diluted compound was added to the plate. Cezanne 1 was diluted in reaction buffer (40 mM Tris, pH 7.5, 0.005% Tween 20, 0.5 mg/ml BSA, 5 mM—beta-mercaptoethanol) to the equivalent of 0.005 μl/well and 10 μl of diluted Cezanne 1 was added to the compound. Enzyme and compound were incubated for 30 min at room temp. Reactions were initiated by the addition of 50 nM of TAMRA labelled peptide linked to ubiquitin via an iso-peptide bond as fluorescence polarisation substrate. Reactions were read immediately after addition of substrate and following a 2 hr incubation at room temperature. Readings were performed on a Pherastar Plus (BMG Labtech). λ Excitation 540 nm; λ Emission 590 nm.

Chain of Cezanne 1 (Q6GQQ9 whole entry): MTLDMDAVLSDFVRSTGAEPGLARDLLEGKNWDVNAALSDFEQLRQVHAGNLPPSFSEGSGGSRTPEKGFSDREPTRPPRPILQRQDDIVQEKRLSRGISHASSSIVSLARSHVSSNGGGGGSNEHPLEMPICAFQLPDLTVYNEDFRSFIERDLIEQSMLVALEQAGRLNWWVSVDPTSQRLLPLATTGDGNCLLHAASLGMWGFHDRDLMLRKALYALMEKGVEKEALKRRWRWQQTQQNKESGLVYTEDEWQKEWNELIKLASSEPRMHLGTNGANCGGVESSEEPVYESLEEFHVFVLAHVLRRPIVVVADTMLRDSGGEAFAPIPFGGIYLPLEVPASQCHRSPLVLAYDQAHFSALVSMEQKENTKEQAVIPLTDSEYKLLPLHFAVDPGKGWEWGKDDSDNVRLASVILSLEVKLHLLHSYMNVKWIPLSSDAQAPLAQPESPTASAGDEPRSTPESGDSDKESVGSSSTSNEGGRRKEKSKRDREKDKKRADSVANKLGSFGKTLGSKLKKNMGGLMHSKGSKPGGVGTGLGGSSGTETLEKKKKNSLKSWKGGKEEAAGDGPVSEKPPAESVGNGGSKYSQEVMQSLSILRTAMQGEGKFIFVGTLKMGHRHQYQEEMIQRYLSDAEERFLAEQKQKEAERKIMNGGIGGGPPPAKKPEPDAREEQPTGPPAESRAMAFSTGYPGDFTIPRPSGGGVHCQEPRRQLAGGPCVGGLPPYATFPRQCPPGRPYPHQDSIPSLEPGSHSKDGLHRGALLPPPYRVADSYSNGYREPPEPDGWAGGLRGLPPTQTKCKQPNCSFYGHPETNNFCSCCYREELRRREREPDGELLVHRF

| Structure (SMILES) | IC50 [nM] |
| --- | --- |
| N#CN1CCC2(Cc3ccc(Cl)cc3NC2=O)C1 (stereo not shown) [Example 2, 7′-Chloro-2′-oxo-1′,4′-dihydro-2′H-spiro[pyrrolidine-3,3′-quinoline]-1-carbonitrile] | 1000 to 10000 |
| COc1ccc2c(c1)NC(=O)C1(CCN(C#N)C1)C2 (stereo not shown) [Example 3, 7′-Methoxy-2′-oxo-1′,4′-dihydro-2′H-spiro[pyrrolidine-3,3′-quinoline]-1-carbonitrile] | 1000 to 10000 |
| N#CN1CCC2(Cc3ccc(-c4ccc(-c5ccccc5)cc4)cc3NC2=O)C1 (stereo not shown) [Example 6, 7′-([1,1′-Biphenyl]-4-yl)-2′-oxo-1′,4′-dihydro-2′H-spiro[pyrrolidine-3,3′-quinoline]-1-carbonitrile] | 1000 to 10000 |

same assay, conditions: Cezanne 1 biochemical IC50 assay; 30 min pre-incubation, read after 2 hr at room temperature; read-out: IC50 range

| IC50 [nM] | Structure (SMILES) |
| --- | --- |
| 1000 to 10000 | N#CN1CCC2(Cc3ccccc3NC2=O)C1 (stereo not shown) [Example 1, 2′-Oxo-1′,4′-dihydro-2′H-spiro[pyrrolidine-3,3′-quinoline]-1-carbonitrile] |
| 1000 to 10000 | N#CN1CCC2(Cc3ccc(-c4ccccc4)cc3NC2=O)C1 (stereo not shown) [Example 4, 2′-Oxo-7′-phenyl-1′,4′-dihydro-2′H-spiro[pyrrolidine-3,3′-quinoline]-1-carbonitrile] |
| 1000 to 10000 | N#CN1CCC2(Cc3ccc(-c4ccc(Oc5ccccc5)cc4)cc3NC2=O)C1 (stereo not shown) [Example 11, 2′-Oxo-7′-(4-phenoxyphenyl)-1′,4′-dihydro-2′H-spiro[pyrrolidine-3,3′-quinoline]-1-carbonitrile] |
| 1000 to 10000 | Cn1cc(-c2ccc3c(c2)NC(=O)C2(CCN(C#N)C2)C3)cn1 (stereo not shown) [Example 12, 7′-(1-Methyl-1H-pyrazol-4-yl)-2′-oxo-1′,4′-dihydro-2′H-spiro[pyrrolidine-3,3′-quinoline]-1-carbonitrile] |
| 1000 to 10000 | N#Cc1ccc(-c2ccc3c(c2)NC(=O)C2(CCN(C#N)C2)C3)cc1 (stereo not shown) [Example 13, 7′-(4-Cyanophenyl)-2′-oxo-1′,4′-dihydro-2′H-spiro[pyrrolidine-3,3′-quinoline]-1-carbonitrile] |
| 1000 to 10000 | CNC(=O)c1ccc(-c2ccc3c(c2)NC(=O)C2(CCN(C#N)C2)C3)cn1 (stereo not shown) [Example 15, 5-(1-Cyano-2′-oxo-1′,4′-dihydro-2′H-spiro[pyrrolidine-3,3′-quinolin]-7′-yl)-N-methylpicolinamide] |
| 1000 to 10000 | CNC(=O)c1ccc(-c2ccc3c(c2)NC(=O)C2(CCN(C#N)C2)C3)cc1 (stereo not shown) [Example 17, 4-(1-Cyano-2′-oxo-1′,4′-dihydro-2′H-spiro[pyrrolidine-3,3′-quinolin]-7′-yl)-N-methylbenzamide] |
| 100 to 1000 | CC(C)Oc1ccc(F)cc1-c1ccc2c(c1)NC(=O)C1(CCN(C#N)C1)C2 (stereo not shown) [Example 21, 7′-(5-Fluoro-2-isopropoxyphenyl)-2′-oxo-1′,4′-dihydro-2′H-spiro[pyrrolidine-3,3′-quinoline]-1-carbonitrile] |
| < 100 | Cn1ncc2cc(-c3ccc4c(c3)NC(=O)C3(CCN(C#N)C3)C4)ccc21 (stereo not shown) [Example 24, 7′-(1-Methyl-1H-indazol-5-yl)-2′-oxo-1′,4′-dihydro-2′H-spiro[pyrrolidine-3,3′-quinoline]-1-carbonitrile] |
| 100 to 1000 | Cc1ccc2[nH]ncc2c1-c1ccc2c(c1)NC(=O)C1(CCN(C#N)C1)C2 (stereo not shown) [Example 25, 7′-(5-Methyl-1H-indazol-4-yl)-2′-oxo-1′,4′-dihydro-2′H-spiro[pyrrolidine-3,3′-quinoline]-1-carbonitrile] |
| 100 to 1000 | N#CN1CCC2(Cc3ccc(-c4cccc(NS(=O)(=O)C5CC5)c4)cc3NC2=O)C1 (stereo not shown) [Example 26, N-(3-(1-Cyano-2′-oxo-1′,4′-dihydro-2′H-spiro[pyrrolidine-3,3′-quinolin]-7′-yl)phenyl)cyclopropanesulfonamide] |
| 1000 to 10000 | Cc1n[nH]cc1-c1ccc2c(c1)NC(=O)C1(CCN(C#N)C1)C2 (stereo not shown) [Example 27, 7′-(3-Methyl-1H-pyrazol-4-yl)-2′-oxo-1′,4′-dihydro-2′H-spiro[pyrrolidine-3,3′-quinoline]-1-carbonitrile] |
| 100 to 1000 | N#CN1CCC2(Cc3ccc(-c4cncnc4)cc3NC2=O)C1 (stereo not shown) [Example 28, 2′-Oxo-7′-(pyrimidin-5-yl)-1′,4′-dihydro-2′H-spiro[pyrrolidine-3,3′-quinoline]-1-carbonitrile] |
| 1000 to 10000 | CC(=O)Nc1cccc(-c2ccc3c(c2)NC(=O)C2(CCN(C#N)C2)C3)c1 (stereo not shown) [Example 29, N-(3-(1-Cyano-2′-oxo-1′,4′-dihydro-2′H-spiro[pyrrolidine-3,3′-quinolin]-7′-yl)phenyl)acetamide] |
| 100 to 1000 | CN(C)C(=O)c1cccc(-c2ccc3c(c2)NC(=O)C2(CCN(C#N)C2)C3)c1 (stereo not shown) [Example 30, 3-(1-Cyano-2′-oxo-1′,4′-dihydro-2′H-spiro[pyrrolidine-3,3′-quinolin]-7′-yl)-N,N-dimethylbenzamide] |
| 1000 to 10000 | CC(=O)Nc1ccc(-c2ccc3c(c2)NC(=O)C2(CCN(C#N)C2)C3)cc1 (stereo not shown) [Example 31, N-(4-(1-Cyano-2′-oxo-1′,4′-dihydro-2′H-spiro[pyrrolidine-3,3′-quinolin]-7′-yl)phenyl)acetamide] |

The remaining lines, values behind:

| Structure (SMILES) | IC50 [nM] |
| --- | --- |
| CC1CC2(CCN(C#N)C2)C(=O)N1 (single isomer, unassigned) [Example 82, 8-Methyl-6-oxo-2,7-diazaspiro[4.4]nonane-2-carbonitrile] | > 10000 |
| CC1CC2(CCN(C#N)C2)C(=O)N1 (single isomer, unassigned) [Example 83, 8-Methyl-6-oxo-2,7-diazaspiro[4.4]nonane-2-carbonitrile] | > 10000 |
| N#CN1CCC2(CC(c3ccccc3)NC2=O)C1 (single isomer, unassigned) [Example 84, 6-Oxo-8-phenyl-2,7-diazaspiro[4.4]nonane-2-carbonitrile] | > 10000 |
| COc1ccc(C(C)C)cc1-c1ccc2c(c1)NC(=O)C1(CCN(C#N)C1)C2 (stereo not shown) [Example 5, 7′-(5-Isopropyl-2-methoxyphenyl)-2′-oxo-1′,4′-dihydro-2′H-spiro[pyrrolidine-3,3′-quinoline]-1-carbonitrile] | 1000 to 10000 |
| N#CN1CCC2(Cc3ccc(-c4cc(OC(F)(F)F)ccc4Cl)cc3NC2=O)C1 (stereo not shown) [Example 14, 7′-(2-Chloro-5-(trifluoromethoxy)phenyl)-2′-oxo-1′,4′-dihydro-2′H-spiro[pyrrolidine-3,3′-quinoline]-1-carbonitrile] | 1000 to 10000 |
| CN1CCN(c2ccc(-c3ccc4c(c3)NC(=O)C3(CCN(C#N)C3)C4)cc2)CC1 (stereo not shown) [Example 19, 7′-(4-(4-Methylpiperazin-1-yl)phenyl)-2′-oxo-1′,4′-dihydro-2′H-spiro[pyrrolidine-3,3′-quinoline]-1-carbonitrile] | 100 to 1000 |
| CN1CCN(C(=O)c2ccc(-c3ccc4c(c3)NC(=O)C3(CCN(C#N)C3)C4)cc2)CC1 (stereo not shown) [Example 23, 7′-(4-(4-Methylpiperazine-1-carbonyl)phenyl)-2′-oxo-1′,4′-dihydro-2′H-spiro[pyrrolidine-3,3′-quinoline]-1-carbonitrile] | 100 to 1000 |
| N#CN1CCC2(Cc3ccc(-c4ccc(S(=O)(=O)N5CCOCC5)cc4)cc3NC2=O)C1 (stereo not shown) [Example 32, 7′-(4-(Morpholinosulfonyl)phenyl)-2′-oxo-1′,4′-dihydro-2′H-spiro[pyrrolidine-3,3′-quinoline]-1-carbonitrile] | 1000 to 10000 |
| Cc1n[nH]c(C)c1-c1ccc2c(c1)NC(=O)C1(CCN(C#N)C1)C2 (stereo not shown) [Example 33, 7′-(3,5-Dimethyl-1H-pyrazol-4-yl)-2′-oxo-1′,4′-dihydro-2′H-spiro[pyrrolidine-3,3′-quinoline]-1-carbonitrile] | 1000 to 10000 |
